pEC50, pIC50: −log10 of the molar value. Active and inactive are the calls of the source. The calls are words filed in the database; no cut-off is given here.
Tests used:
CCRF-CEM = assay: Antiproliferative against human CEM cells after 72 hrs; assay type: cell-based
K562 = assay: Antiproliferative against human K562 cells after 72 hrs; assay type: functional, cell-based; conditions: K562, 72 h
[1] = molecular target: T1, DNA topoisomerase 1 (Homo sapiens) (UniProt P11387); assay: Inhibition of DNA topoisomerase 1 assessed as partial inhibition of unwinding of supercoiled pBR322 DNA at 5 uM by agarose gel electrophoresis
T1 sequence (whole entry): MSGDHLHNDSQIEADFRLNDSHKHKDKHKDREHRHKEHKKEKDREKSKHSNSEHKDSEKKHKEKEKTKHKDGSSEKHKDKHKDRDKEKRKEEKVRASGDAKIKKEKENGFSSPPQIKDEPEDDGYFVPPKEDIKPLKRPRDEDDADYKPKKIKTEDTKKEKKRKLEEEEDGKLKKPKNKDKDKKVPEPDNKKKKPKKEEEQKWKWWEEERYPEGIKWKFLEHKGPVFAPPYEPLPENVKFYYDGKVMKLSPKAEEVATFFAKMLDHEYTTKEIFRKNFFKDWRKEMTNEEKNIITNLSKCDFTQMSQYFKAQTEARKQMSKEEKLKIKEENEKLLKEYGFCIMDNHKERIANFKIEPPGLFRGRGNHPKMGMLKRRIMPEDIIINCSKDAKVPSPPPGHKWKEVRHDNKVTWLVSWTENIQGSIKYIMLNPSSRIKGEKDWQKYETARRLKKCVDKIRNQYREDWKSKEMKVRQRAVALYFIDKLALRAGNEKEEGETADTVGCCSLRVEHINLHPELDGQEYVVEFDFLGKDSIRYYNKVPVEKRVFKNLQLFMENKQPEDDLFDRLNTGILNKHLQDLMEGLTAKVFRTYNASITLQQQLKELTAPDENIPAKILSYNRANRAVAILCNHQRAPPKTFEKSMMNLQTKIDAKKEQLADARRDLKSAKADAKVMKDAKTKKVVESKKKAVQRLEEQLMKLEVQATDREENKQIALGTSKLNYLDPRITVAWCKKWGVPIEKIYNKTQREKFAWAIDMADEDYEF

[2] = molecular target: T1, DNA topoisomerase 1 (Homo sapiens); assay: Inhibition of DNA topoisomerase 1 assessed as inhibition of unwinding of supercoiled pBR322 DNA at 10 to 20 uM by agarose gel electrophoresis
[3] = Antiproliferative against human Molt4/C8 cells after 72 hrs; assay type: functional, cell-based; conditions: MOLT-4, 72 h
L1210 = assay: Antiproliferative against mouse L1210 cells after 48 hrs; assay type: functional, cell-based; conditions: L1210, 48 h
HCT-116 = assay: Antiproliferative against human HCT116 cells after 72 hrs; assay type: functional, cell-based; conditions: HCT-116, 72 h
[4] = test system: Human immunodeficiency virus 2; assay: Antiviral activity against HIV2 ROD infected in human CEM cells assessed as drug level required for protection against virus-induced cytopathogenicity after 4 days; assay type: functional, organism-based; conditions: Human immunodeficiency virus 2, ISOLATE ROD, CCRF-CEM, 96 h
[5] = test system: Human immunodeficiency virus 1; assay: Antiviral activity against HIV1 3B infected in human CEM cells assessed as drug level required for protection against virus-induced cytopathogenicity after 4 days; assay type: functional, organism-based; conditions: Human immunodeficiency virus 1, 3B, CCRF-CEM, 96 h
[6] = molecular target: T1, DNA topoisomerase 1 (Homo sapiens); assay: Inhibition of DNA topoisomerase 1 assessed as inhibition of unwinding of supercoiled pBR322 DNA at 20 uM by agarose gel electrophoresis
Human alphaherpesvirus 1 = assay: Antiviral activity against HSV1 infected in HEL cells at subtoxic concentration; assay type: functional, organism-based
Influenza A virus = assay: Antiviral activity against influenza A virus H1N1:H3N2 infected in […] cells at subtoxic concentration; assay type: functional, organism-based
Coxsackievirus B4 [7] = assay: Antiviral activity against Coxsackievirus B4 infected in african green monkey Vero cells at subtoxic concentration; assay type: functional, organism-based
[8] = test system: Respiratory syncytial virus; assay: Antiviral activity against Respiratory syncytial virus infected in human HeLa cells at subtoxic concentration; assay type: functional, organism-based
[9] = test system: Mammalian orthoreovirus 1; assay: Antiviral activity against Reovirus 1 infected in african green monkey Vero cells at subtoxic concentration; assay type: functional, organism-based
Vaccinia virus = assay: Antiviral activity against Vaccinia virus infected in HEL cells at subtoxic concentration; assay type: functional, organism-based; conditions: Orthopoxvirus vaccinia
[10] = Selectivity index, ratio of IC50 for human CEM cells to EC50 for HIV1 3B; assay type: toxicity, cell-based, CCRF-CEM; conditions: read-out: Ratio IC50/EC50
Human respirovirus 3 = assay: Antiviral activity against Parainfluenza virus 3 infected in african green monkey Vero cells at subtoxic concentration; assay type: functional, organism-based
[11] = test system: Vesicular stomatitis virus; assay: Antiviral activity against VSV infected in human HeLa cells at subtoxic concentration; assay type: functional, organism-based
Punta Toro virus = assay: Antiviral activity against Punta Toro virus infected in african green monkey Vero cells at subtoxic concentration; assay type: functional, organism-based
Human alphaherpesvirus 2 = assay: Antiviral activity against HSV2 infected in HEL cells at subtoxic concentration; assay type: functional, organism-based
Influenza B virus = assay: Antiviral activity against influenza B virus infected in […] cells at subtoxic concentration; assay type: functional, organism-based
Sindbis virus = assay: Antiviral activity against Sindbis virus infected in african green monkey Vero cells at subtoxic concentration; assay type: functional, organism-based
[12] = test system: Vesicular stomatitis virus; assay: Antiviral activity against VSV infected in HEL cells at subtoxic concentration; assay type: functional, organism-based
Coxsackievirus B4 [13] = assay: Antiviral activity against Coxsackievirus B4 infected in human HeLa cells at subtoxic concentration; assay type: functional, organism-based
[14] = molecular target: T1, DNA topoisomerase 1 (Homo sapiens); assay: Inhibition of DNA topoisomerase 1 assessed as partial inhibition of unwinding of supercoiled pBR322 DNA at 20 uM by agarose gel electrophoresis

| Structure (SMILES) | pIC50 (CCRF-CEM) | pIC50 [3] | pIC50 (L1210) | pEC50 [4] | pEC50 [5] | Activity [6] | Activity (Human alphaherpesvirus 1) | Activity (Influenza A virus) | Activity (Coxsackievirus B4 [7]) | Activity [8] | Activity [9] | Activity (Vaccinia virus) | selectivity ratio [10] | Activity (Human respirovirus 3) | Activity [11] | Activity (Punta Toro virus) | Activity (Human alphaherpesvirus 2) | Activity (Influenza B virus) | Activity (Sindbis virus) | Activity [12] | other results |
| --- | --- | --- | --- | --- | --- | --- | --- | --- | --- | --- | --- | --- | --- | --- | --- | --- | --- | --- | --- | --- | --- |
| CO[C@@H]1[C@H](O)C[C@@H](O[C@@H]2C[C@H](Oc3cc(O)c4c(O)c5c(cc4c3)C[C@@H]([C@H](OC)C(=O)[C@@H](O)[C@@H](C)O)[C@H](O[C@H]3C[C@@H](O[C@H]4C[C@@H](O[C@H]6C[C@](C)(O)[C@@H](OC(=O)C(C)C)[C@H](C)O6)[C@H](O)[C@@H](C)O4)[C@H](O)[C@@H](C)O3)C5=O)O[C@H](C)[C@@H]2OC(C)=O)O[C@@H]1C [OLIVOMYCIN I] | 8.60 | 8.40 | 7.47 | 8.40 | 8.30 |  |  |  |  |  |  |  |  |  |  |  |  |  |  |  | pIC50 (K562): 7.36; Activity [1]: Active; Activity [2]: Active; pIC50 (HCT-116): 7.26 |
| CO[C@H](C(=O)[C@@H](O)[C@@H](C)O)[C@@H]1Cc2cc3c(/N=N/c4ccc(Cl)c(Cl)c4)c(O)cc(O)c3c(O)c2C(=O)[C@H]1O[C@H]1C[C@@H](O[C@H]2C[C@@H](O[C@H]3C[C@](C)(O)[C@@H](OC(=O)C(C)C)[C@H](C)O3)[C@H](O)[C@@H](C)O2)[C@H](O)[C@@H](C)O1 | 5.59 | 5.72 | 5.25 | ≤ 6.10 | 6.30 | Active | inactive | inactive | inactive | inactive | inactive | inactive | 5.2 | inactive | inactive | inactive | inactive | inactive | inactive | inactive | Activity (Coxsackievirus B4 [13]): inactive |
| CO[C@@H]1[C@H](O)C[C@@H](O[C@@H]2C[C@H](Oc3cc(OC(C)=O)c4c(O)c5c(cc4c3)C[C@@H]([C@H](OC)C(=O)[C@@H](O)[C@@H](C)O)[C@H](O[C@H]3C[C@@H](O[C@H]4C[C@@H](O[C@H]6C[C@](C)(O)[C@@H](OC(=O)C(C)C)[C@H](C)O6)[C@H](O)[C@@H](C)O4)[C@H](O)[C@@H](C)O3)C5=O)O[C@H](C)[C@@H]2OC(C)=O)O[C@@H]1C | 8.62 | 7.66 | 8.10 |  |  |  |  |  |  |  |  |  |  |  |  |  |  |  |  |  |  |
| CO[C@H](C(=O)[C@@H](O)[C@@H](C)O)[C@@H]1Cc2cc3c(/N=N/c4ccc(C)cc4)c(O)cc(O)c3c(O)c2C(=O)[C@H]1O[C@H]1C[C@@H](O[C@H]2C[C@@H](O[C@H]3C[C@](C)(O)[C@@H](OC(=O)C(C)C)[C@H](C)O3)[C@H](O)[C@@H](C)O2)[C@H](O)[C@@H](C)O1 |  |  |  |  |  |  |  |  |  |  |  |  |  |  |  |  |  |  |  |  | pIC50 (K562): 5.70; pIC50 (HCT-116): 5.62; Activity [14]: Active |
| CO[C@H](C(=O)[C@@H](O)[C@@H](C)O)[C@@H]1Cc2cc3c(/N=N/c4ccccc4)c(O)cc(O)c3c(O)c2C(=O)[C@H]1O[C@H]1C[C@@H](O[C@H]2C[C@@H](O[C@H]3C[C@](C)(O)[C@@H](OC(=O)C(C)C)[C@H](C)O3)[C@H](O)[C@@H](C)O2)[C@H](O)[C@@H](C)O1 | 5.74 | 5.80 | 5.21 | ≤ 7.40 | 7.22 | inactive | inactive | inactive | inactive | inactive | inactive | inactive | 30 | inactive | inactive | inactive | inactive | inactive | inactive | inactive | Activity (Coxsackievirus B4 [13]): inactive |
| CO[C@H](C(=O)[C@@H](O)[C@@H](C)O)[C@@H]1Cc2cc3c(/N=N/c4ccc(S(N)(=O)=O)cc4)c(O)cc(O)c3c(O)c2C(=O)[C@H]1O[C@H]1C[C@@H](O[C@H]2C[C@@H](O[C@H]3C[C@](C)(O)[C@@H](OC(=O)C(C)C)[C@H](C)O3)[C@H](O)[C@@H](C)O2)[C@H](O)[C@@H](C)O1 | < 4.00 | < 4.00 | < 4.00 | < 4.00 | 4.30 | inactive | inactive | inactive | inactive | inactive | inactive | inactive | > 2 | inactive | inactive | inactive | inactive | inactive | inactive | inactive | Activity (Coxsackievirus B4 [13]): inactive |
| COc1ccc(/N=N/c2c(O)cc(O)c3c(O)c4c(cc23)C[C@@H]([C@H](OC)C(=O)[C@@H](O)[C@@H](C)O)[C@H](O[C@H]2C[C@@H](O[C@H]3C[C@@H](O[C@H]5C[C@](C)(O)[C@@H](OC(=O)C(C)C)[C@H](C)O5)[C@H](O)[C@@H](C)O3)[C@H](O)[C@@H](C)O2)C4=O)cc1 | 4.59 | 5.14 | 4.70 | ≤ 5.40 | 6.30 | inactive | inactive | inactive | inactive | inactive | inactive | inactive | 52 | inactive | inactive | inactive | inactive | inactive | inactive | inactive | Activity (Coxsackievirus B4 [13]): inactive |
